In patent US5449783A, “Diphenylthiazole derivative” (Hisamitsu Pharmaceutical Co., Inc., priority 1993, dated 1995):

How the values were obtained:
[1] = system: adjuvant arthritis (edema of the hind paw); assay: Rat adjuvant arthritis experiment; format: in vivo, male Wistar rat; settings: oral, 10 mg/kg once a day for 7 days
Experimental: (Rat adjuvant arthritis experiment)
0.1 ml of 6 mg/ml Mycobacterium butyricum suspension in liquid paraffin was intracutaneously injected into the tail root of each male Wistar rat weighing about 200 g. 20 days thereafter, rats clearly suffering from arthritis in the hind paw were selected and divided into groups each comprising 7 animals.
A test compound was orally administered in a dose as specified below once a day for 7 days. Then the effect of the test compound on the adjuvant arthritis was examined by using an inhibition ratio on the edema of the hind paw as an indicator. The inhibition ratio was calculated according to the following equation.

[2] = system: acetic acid-induced writhing; assay: Mouse acetic acid-induced writhing experiment; format: in vivo, Male ddy mice; settings: oral, 20 mg/kg, 30 minutes before 0.6% acetic acid; writhing counted for 10 minutes
Experimental: (Mouse acetic acid-induced writhing experiment)
Male ddy mice weighing about 23 g were divided into groups each comprising 7 to 9 animals.
30 minutes after a test compound was orally administered, a 0.6% acetic acid solution in physiological saline was intraperitoneally administered in a dose of 0.1 ml per 10 g of the body weight. From 5 minutes after the intraperitoneal administration, the frequency of writhing was counted for 10 minutes to determine the inhibition ratio by comparing with the frequency of writhing in the control group.

[3] = system: carrageenin-induced paw edema; assay: Rat carrageenin-induced paw edema experiment A (oral); format: in vivo, Male Wistar rats; settings: 10 mg/kg, 1 hour before carrageenin, 3 hours after induction
Experimental: Rat (carrageenin-induced paw edema experiment A)
Male Wistar rats weighing 140 to 160 g were divided into groups each comprising 8 animals.
0.1 ml of 1% carrageenin (PICNIN A, mfd. by Zushi Kagaku K.K.) was subcutaneously injected into the right hind paw of each rat and the edema thus induced was measured with the lapse of time by using a device for measuring foot edema. A test compound was suspended in a 0.5% CMC solution and orally administered to the rat 1 hour before the injection of carrageenin. The results expressed in the inhibition ratio (average) of each test group to the control group, to which no compound had been orally administered, 3 hours after the induction of the reaction are given in Table 2.

[4] = system: carrageenin-induced paw edema; assay: Rat carrageenin-induced paw edema experiment C (injected together with carrageenin into the paw); format: in vivo, Male Wistar rats; settings: 3 hours after induction
Experimental: Rat (carrageenin-induced paw edema experiment C)
Male Wistar rats weighing 160 to 170 g were divided into groups each comprising 7 animals.
0.1 ml of 1% carrageenin (PICNIN A, mfd. by Zushi Kagaku K.K.) containing a test compound was subcutaneously injected into the right hind paw of each rat and the edema thus induced was measured with the lapse of time by using a device for measuring foot edema.

[5] = system: carrageenin-induced paw edema; assay: Rat carrageenin-induced paw edema experiment B (intravenous); format: in vivo, Male Wistar rats; settings: 1 mg/kg, immediately before carrageenin, 3 hours after induction
Experimental: Rat (carrageenin-induced paw edema experiment B)
0.1 ml of 1% carrageenin (PICNIN A, mfd. by Zushi Kagaku K.K.) was subcutaneously injected into the right hind paw of each rat and the edema thus induced was measured with the lapse of time by using a device for measuring foot edema. A test compound was suspended in a 60% N,N-dimethylformamide solution in physiological saline and intravenously injected to the rat immediately before the injection of carrageenin.

prostaglandin synthetase = biological target: T1, prostaglandin synthetase (Ovis aries, UniProt P05979); assay: Effect of inhibiting biosynthesis of prostaglandin E2; format: biochemical, sheep; settings: 10^-7; 10 minutes incubation
T1 construct: originating in sheep seminal vesicle; from tissue; host or cells: sheep seminal vesicle
T1 sequence (P05979 25-600): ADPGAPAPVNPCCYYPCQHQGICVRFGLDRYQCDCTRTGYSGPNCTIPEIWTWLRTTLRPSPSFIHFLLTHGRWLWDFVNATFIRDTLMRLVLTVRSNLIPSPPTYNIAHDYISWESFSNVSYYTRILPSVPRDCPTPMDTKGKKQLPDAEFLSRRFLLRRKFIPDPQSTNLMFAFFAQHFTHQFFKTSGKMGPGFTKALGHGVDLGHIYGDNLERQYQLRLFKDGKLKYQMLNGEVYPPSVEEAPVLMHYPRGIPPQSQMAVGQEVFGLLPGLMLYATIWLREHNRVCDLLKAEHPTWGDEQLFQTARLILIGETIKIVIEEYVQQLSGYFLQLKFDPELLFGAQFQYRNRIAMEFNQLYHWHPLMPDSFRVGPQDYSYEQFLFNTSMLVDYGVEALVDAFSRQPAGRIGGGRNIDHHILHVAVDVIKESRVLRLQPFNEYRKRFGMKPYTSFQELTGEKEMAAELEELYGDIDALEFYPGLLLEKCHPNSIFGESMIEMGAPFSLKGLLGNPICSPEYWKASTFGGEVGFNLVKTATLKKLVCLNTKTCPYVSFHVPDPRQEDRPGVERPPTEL
Experimental: (Effect of inhibiting biosynthesis of prostaglandin E2)
To a tris buffer solution containing 50 mM of glutathione and 50 mM of epinephrine were added prostaglandin synthetase (originating in sheep seminal vesicle) and a test drug dissolved in DMSO and incubated for 10 minutes. Then the reaction was ceased with 1 N hydrochloric acid under ice-cooling and the reaction mixture was extracted with ethyl ether. Then the extract was solidified by drying with nitrogen gas, dissolved in ethanol and developed on a TLC with a developer. Then the aimed part was scraped up and the radioactivity was measured with a liquid scintillation counter.

biosynthesis of 5-HETE = assay: Effect of inhibiting biosynthesis of 5-HETE in neutrophiles; format: cell-based, Hartley guinea pigs; settings: 10^-6; A 23187, 14C-arachidonic acid
Experimental: (Effect of inhibiting biosynthesis of 5-HETE)
Hartley guinea pigs weighing 300 to 500 g were used.
0.2% oyster glycogen was intraperitoneally administered to each guinea pig and, after 16 hours, neutrophiles of the animal were harvested. […] After ceasing the reaction with 1N hydrochloric acid under ice-cooling, the reaction mixture was extracted with ethyl acetate. Then the extract was solidified by drying with nitrogen gas, dissolved in ethanol and developed on a TLC with a developer. Then the aimed part was scraped up and the radioactivity was measured with a liquid scintillation counter.

[6] = as stated by prior reference A; cited from earlier work
[7] = as stated by prior reference A; cited from earlier work; remark: listed apart in the source
platelet aggregation = settings: as stated by prior reference A; cited from earlier work

Row | SMILES | Inhibition ratio (prostaglandin synthetase) [%] | Inhibition ratio [1] [%] | Inhibition ratio [2] [%] | Inhibition ratio [3] [%] | Inhibition ratio ([4]; 0.003 mg/kg) [%] | Inhibition ratio [5] [%] | Inhibition ratio (biosynthesis of 5-HETE) [%] | hypocholesterolemic effect (in words) [6] | antiinflammatory and analgesic effects (in words) [7] | platelet aggregation inhibiting effect (in words) (platelet aggregation) | Inhibition ratio ([4]; 0.03 mg/kg) [%]
1 | CC(Cc1ccc(O)c(O)c1)C(C)Cc1ccc(O)c(O)c1 (centres unmarked) [NDGA, nordihydroguairetic acid, reference compound] |  |  |  |  |  |  | 43.0 |  |  |  | 
2 | O=[N+]([O-])c1ccc(-c2sc(NS(=O)(=O)C(F)(F)F)nc2-c2ccccc2)cc1 [Ex. 17] | 48.1 | 35.3 | 36.3 | 23.9 | 37.1 | 36.6 | 47.3 |  |  |  | 
3 | CC(=O)N(C)c1nc(-c2ccccc2)c(-c2ccccc2)s1 [2-(N-methyl-N-acetyl)amino-4,5-diphenylthiazole] |  |  |  |  |  |  |  | hypocholesterolemic effect | weak or scarcely any | platelet aggregation inhibiting effect | 
4 | O=S(=O)(Nc1nc(-c2ccccc2)c(-c2ccc(F)cc2)s1)C(F)(F)F [Ex. 37] | 43.9 | 44.9 | 18.1 | 56.2 | 49.8 | 46.4 | 48.7 |  |  |  | 
5 | CNc1nc(-c2ccccc2)c(-c2ccccc2)s1 [2-methylamino-4,5-diphenyl-thiazole] |  |  |  |  |  |  |  | hypocholesterolemic effect | weak or scarcely any | platelet aggregation inhibiting effect | 
6 | COc1ccc2c(c1)c(CC(=O)O)c(C)n2C(=O)c1ccc(Cl)cc1 [indomethacin, reference compound] |  |  |  |  |  | 47.4 |  |  |  |  | 44.7
7 | c1ccc(-c2nc(N3CCOCC3)sc2-c2ccccc2)cc1 [2-morpholino-4,5-diphenylthiazole] |  |  |  |  |  |  |  | hypocholesterolemic effect | weak or scarcely any | platelet aggregation inhibiting effect | 

Further lines, with some results ahead:

Row | Inhibition ratio (prostaglandin synthetase) [%] | SMILES | Inhibition ratio [1] [%] | Inhibition ratio [2] [%] | Inhibition ratio [3] [%] | Inhibition ratio ([4]; 0.003 mg/kg) [%] | Inhibition ratio [5] [%] | Inhibition ratio (biosynthesis of 5-HETE) [%] | hypocholesterolemic effect (in words) [6] | antiinflammatory and analgesic effects (in words) [7] | platelet aggregation inhibiting effect (in words) (platelet aggregation) | Inhibition ratio ([4]; 0.03 mg/kg) [%]
8 | 57.2 | COc1ccc(-c2nc(NS(=O)(=O)C(F)(F)F)sc2-c2ccccc2)cc1 [Ex. 10] | 45.6 | 46.1 | 46.8 | 50.7 | 52.8 | 45.1 |  |  |  | 
9 | 45.5 | O=S(=O)(Nc1nc(-c2ccccc2)c(-c2ccccc2)s1)C(F)(F)F [Ex. 1, 2-trifluoromethanesulfonylamino-4,5-diphenylthlazole] | 36.6 | 24.6 | 44.9 | 44.2 | 41.3 | 40.5 |  |  |  | 
10 | 52.2 | COc1ccc(-c2sc(NS(=O)(=O)C(F)(F)F)nc2-c2ccccc2)cc1 [Ex. 32] | 34.6 | 28.6 | 52.3 | 50.4 | 48.1 | 44.8 |  |  |  | 
